Usually Ki stands for the dissociation constant of the complex between target and ligand, obtained from inhibition or displacement.

From patent US10780092B2, “Fused pyrazine derivatives useful as soluble guanylate cyclase stimulators” (Merck Sharp & Dohme Corp., priority 2016, dated 2020) come the findings set out here.

The structures appear in SMILES notation.

The target in experiment [1] is human recombinant sGC enzyme (Homo sapiens (Human), UniProt Q02108+Q02153). The experiment is described as follows: SEC competition binding assay with [3H] Compound B radioligand. As to conditions: displacement of 1.6 nM [3H] Compound B, 24 h at 37° C. The protocol: The binding potencies of sGC compounds to the human recombinant sGC enzyme were determined in a Size Exclusion Chromatography (SEC) competition binding assay using [^3H] Compound B as the radioligand. [^3H] Compound B was prepared using a standardardized tritium exchange procedure. The parent (non-labeled) molecule was first iodinated then a Pd-catalyzed iodine to tritium exchange provided the labeled compound.
Method: The binding buffer was composed of 50 mM triethanolamine pH 7.4, 3 mM MgCl2, 0.025% BSA, 2 mM dithiothreitol (DTT), 300 μM DETA/NO and 400 μM GTP. Assays were conducted in 96-well plates in a total volume of 200 μL. Recombinant human sGC protein (40 ng) was incubated with 1.6 nM [^3H] Compound B for 24 h at 37° C. in the presence and absence of various concentrations of sGC testing compounds delivered as DMSO solutions to give a total of 1% organic solvent content. Non-specific binding was defined by competition with 1 μM of Compound B. After the incubation period, the binding mixtures were loaded onto the gel-filtration plate (ThermoFischer Cat. No. 89808) pre-equilibrated with binding buffer and spun at 1000×g for 3 min at 4° C. on a Bench top centrifuge. The collected eluates in White Frame Clear Well Isoplates (Perkin Elmer Cat #6005040) received 100 μl of UltimaGold scintillation cocktail. The sealed plates were shaken vigorously and span, and counted after 6 hs with a Wallac Microbeta TriLux 1450 LSC & Luminescence Counter (Perkin Elmer). Data from competition experiments were analyzed to determine Ki values using one site—fit Ki equation.

The next experiment has as its target sGC α1/β1 heterodimer (Homo sapiens (Human), UniProt Q02108+Q02153). The experiment is described as follows: Cell-based sGC functional assay (CASA assay), cGMP by HTRF. Particulars: CHO-K1/sGC cells; for Emax: CHO-K1, cGMP production as percentage of maximum of compound A (set to 100%), read-out: % Activation; for EC50: inflection point of cGMP production, 4P fit, read-out: IP. An excerpt:
Cell-Based sGC Functional Assay (Cyclic GMP Assay for sGC Activator: CASA Assay)
Soluble guanylate cyclase (sGC) is a heme-containing enzyme that converts GTP to secondary messenger cGMP. Increases in cGMP levels affect several physiological processes including vasorelaxation through multiple downstream pathways. […] Heme-dependent activators (HDAs) preferentially target sGC containing a ferrous heme group. To determine the effect of sGC activators on enzyme activity, the CASA assay was developed to monitor the generation of cGMP in a cell line that stably expresses the heterodimeric sGC protein.
A CHO-K1 cell line stably expressing the sGC α1/β1 heterodimer was generated using a standard transfection protocol. The cDNA's encoding human sGC α1 and β1 were cloned in pIRES hyg and pIRES neo respectively using standard molecular biology techniques. The plasmids pIRES hyg and pIRES neo plasmids were obtained from Clontech. CHO-K1 cells were transfected with plasmids pIREShyg-hsGCα1 and pIRESneo-hsGCβ1 simultaneously using FUGENE reagent. Clones that stably express both subunits were selected with hygromycin and neomycin for ˜2 weeks. The clone chosen for the assay was designated CHO-K1/sGC. CHO-K1/sGC cells were maintained in F-K12 medium containing 10% heat-inactivated Fetal Bovine Serum (FBS), 100 μg/mL penicillin/streptomycin, 0.5 mg/mL hygromycin and 0.25 mg/mL G418. The cells were then cryopreserved in liquid nitrogen. On the day of the assay, the cells were thawed and resuspended in EBSS Assay Buffer (Sigma, E3024) supplemented with 5 mM MgCl2, 10 mM HEPES (4-(2-hydroxyethyl)piperazine-1-ethanesulfonic acid) and 0.05% BSA (bovine serum albumin) and cell density was then adjusted to 2.25×10^5/mL with EAB. IBMX (3-isobutyl-1-methylxanthin, 0.5 mM) was added to inhibit degradation of cGMP. Compounds were diluted from DMSO stock solutions and added to the assay at a final DMSO concentration of 2.5%. Cells were pre-incubated in the presence and absence of 1 μM of Diethylenetriamine/nitric oxide adduct (DETA-NO; Sigma, 17018) for 30 min at 25° C. Compounds were subsequently added and incubated for 1 hr at 37° C. At the end of the incubation period, the reaction was terminated and the cells were lysed with the detection reagents from Cisbio Kits. The level of intracellular cGMP was determined using an HTRF-based assay kit (CisBio, 62GM2PEC), which detects the displacement of a fluorescence labeled cGMP from its specific antibody. The cGMP produced by test compounds was directly compared to the maximum cGMP production (this value was set to equal 100% activation) of the published sGC compound A (Example 1 in WO 2010/065275, published Jun. 10, 2010).
The test compounds' activities were then expressed as a percentage of compound A, the standard in every experiment. This percent activation was calculated either in the presence or absence of DETA-NO which was then plotted. Inflection points (IP) and maximum fold induction was derived using Abase analysis software for 4P fit.
For orientation: In TR-FRET formats the signal depends on donor and acceptor labels being close together.

With `CC1(c2ccc(Cl)c(O)c2)C(=O)Nc2nc(-c3cn4ccnc4c(Cc4ccc(F)cc4)n3)nc(N)c21` (stereo not drawn) [Example 30-A, 4-Amino-5-(4-chloro-3-hydroxyphenyl)-2-{8-[(4-fluorophenyl)methyl]imidazo[1,2-a]pyrazin-6-yl}-5-methyl-5,7-dihydro-6H-pyrrolo[2,3-d]pyrimidin-6-one], the Ki in experiment [1] was 0.000292 µM. In addition, at sGC α1/β1 heterodimer, the Emax worked out at 88% and the EC50 came to 0.866 µM.

For `CC1(c2cccc(O)c2)C(=O)Nc2nc(-c3cn4ccnc4c(Cc4ccc(F)cc4)n3)nc(N)c21` (stereo not drawn) [Example 31-B, 4-Amino-2-{8-[(4-fluorophenyl)methyl]imidazo[1,2-a]pyrazin-6-yl}-5-(3-hydroxyphenyl)-5-methyl-5,7-dihydro-6H-pyrrolo[2,3-d]pyrimidin-6-one], the Ki in experiment [1] was determined as 0.000274 µM. Moreover, at sGC α1/β1 heterodimer, the Emax worked out at 93% and the EC50 is 0.082 µM.

With `CC(C)CCc1nc(-c2nc(N)c3c(n2)NC(=O)C3(C)c2cc(O)c(Cl)c(F)c2)cn2ccnc12` (stereo not drawn) [Example 32-B, 4-Amino-5-(4-chloro-3-fluoro-5-hydroxyphenyl)-2-(8-isopentylimidazo[1,2-a]pyrazin-6-yl)-5-methyl-5,7-dihydro-6H-pyrrolo[2,3-d]pyrimidin-6-one], the Ki in experiment [1] was determined as 0.000306 µM. On sGC α1/β1 heterodimer, the Emax was 107% and the EC50 stood at 0.648 µM.

Regarding `CC1(c2ccc(C(F)(F)F)c(O)c2)C(=O)Nc2nc(-c3cn4ccnc4c(Cc4cc(F)cc(F)c4F)n3)nc(N)c21` (stereo not drawn) [Example 33-B, 4-Amino-5-(3-hydroxy-4-(trifluoromethyl)phenyl)-5-methyl-2-{8-[(2,3,5-trifluorophenyl)methyl]imidazo[1,2-a]pyrazin-6-yl}-5,7-dihydro-6H-pyrrolo[2,3-d]pyrimidin-6-one], the Ki in experiment [1] worked out at 0.000312 µM. Also, at sGC α1/β1 heterodimer, the Emax is 111% and the EC50 stood at 0.26 µM.

As for `CC1(c2cccc(O)c2)C(=O)Nc2nc(-c3cn4ccnc4c(Cc4ccc(F)cc4F)n3)nc(N)c21` (stereo not drawn) [Example 34-B, 4-Amino-2-{8-[(2,4-difluorophenyl)methyl]imidazo[1,2-a]pyrazin-6-yl}-5-(3-hydroxyphenyl)-5-methyl-5,7-dihydro-6H-pyrrolo[2,3-d]pyrimidin-6-one], the Ki in experiment [1] came to 0.000317 µM. Besides, at sGC α1/β1 heterodimer, the Emax turned out to be 111% and the EC50 worked out at 0.243 µM.

Turning to `CC1(c2ccc(O)c(Cl)c2)C(=O)Nc2nc(-c3cn4ccnc4c(Cc4cccc(F)c4)n3)nc(N)c21` (stereo not drawn) [Example 35-B, 4-Amino-5-(3-chloro-4-hydroxyphenyl)-2-{8-[(3-fluorophenyl)methyl]imidazo[1,2-a]pyrazin-6-yl}-5-methyl-5,7-dihydro-6H-pyrrolo[2,3-d]pyrimidin-6-one], the Ki in experiment [1] is 0.000333 µM. On sGC α1/β1 heterodimer, the Emax was 147% and the EC50 turned out to be 0.402 µM.

Turning to `CC1(c2ccc(Cl)c(O)c2)C(=O)Nc2nc(-c3cn4ccnc4c(Cc4cc(F)cc(F)c4)n3)nc(N)c21` (stereo not drawn) [Example 36-A, 4-Amino-5-(4-chloro-3-hydroxyphenyl)-2-{8-[(3,5-difluorophenyl)methyl]imidazo[1,2-a]pyrazin-6-yl}-5-methyl-5,7-dihydro-6H-pyrrolo[2,3-d]pyrimidin-6-one], the Ki in experiment [1] was 0.000393 µM. On sGC α1/β1 heterodimer, the Emax was 116% and the EC50 came out at 0.381 µM.

For the molecule `CC1(c2ccc(F)c(O)c2)C(=O)Nc2nc(-c3cn4ccnc4c(Cc4ccc(F)cc4)n3)nc(N)c21` (stereo not drawn) [Example 37-B, 4-Amino-5-(4-fluoro-3-hydroxyphenyl)-2-{8-[(4-fluorophenyl)methyl]imidazo[1,2-a]pyrazin-6-yl}-5-methyl-5,7-dihydro-6H-pyrrolo[2,3-d]pyrimidin-6-one], the inhibition constant (Ki) in experiment [1] amounted to 0.000427 µM. Further, at sGC α1/β1 heterodimer, the Emax was 117% and the EC50 is 0.069 µM.

`CCCCc1nc(-c2nc(N)c3c(n2)NC(=O)C3(C)c2cc(O)c(Cl)c(F)c2)cn2ccnc12` (stereo not drawn) [Example 39-B, 4-Amino-2-(8-butylimidazo[1,2-a]pyrazin-6-yl)-5-(4-chloro-3-fluoro-5-hydroxyphenyl)-5-methyl-5,7-dihydro-6H-pyrrolo[2,3-d]pyrimidin-6-one]: in experiment [1], the Ki came out at 0.000446 µM. In addition, at sGC α1/β1 heterodimer, the Emax amounted to 101% and the EC50 was found to be 0.873 µM.

Consider `CC1(c2cc(O)c(Cl)cn2)C(=O)Nc2nc(-c3cn4ccnc4c(Cc4cc(F)cc(F)c4)n3)nc(N)c21` (stereo not drawn) [Example 40-B, 4-Amino-5-(5-chloro-4-hydroxypyridin-2-yl)-2-{8-[(3,5-difluorophenyl)methyl]imidazo[1,2-a]pyrazin-6-yl}-5-methyl-5,7-dihydro-6H-pyrrolo[2,3-d]pyrimidin-6-one], for which the Ki in experiment [1] is 0.000479 µM. On sGC α1/β1 heterodimer, the Emax is 88% and the EC50 was found to be 0.368 µM.

For `CC1(c2ccc(O)c(F)c2)C(=O)Nc2nc(-c3cn4ncnc4c(Cc4ccc(F)cc4)n3)nc(N)c21` (stereo not drawn) [Example 41-B, 4-Amino-5-(3-fluoro-4-hydroxyphenyl)-2-{8-[(4-fluorophenyl)methyl]-[1,2,4]triazolo[1,5-a]pyrazin-6-yl}-5-methyl-5,7-dihydro-6H-pyrrolo[2,3-d]pyrimidin-6-one], the Ki in experiment [1] is 0.00049 µM. At sGC α1/β1 heterodimer, the Emax was 136% and the EC50 is 0.588 µM.

In the case of `CCCCc1nc(-c2nc(N)c3c(n2)NC(=O)C3(C)c2cc(O)c(Cl)c(F)c2)cn2ncnc12` (stereo not drawn) [Example 42-B, 4-Amino-2-(8-butyl-[1,2,4]triazolo[1,5-a]pyrazin-6-yl)-5-(4-chloro-3-fluoro-5-hydroxyphenyl)-5-methyl-5,7-dihydro-6H-pyrrolo[2,3-d]pyrimidin-6-one], in experiment [1], the Ki is 0.000496 µM. At sGC α1/β1 heterodimer, the Emax stood at 170% and the EC50 worked out at 0.146 µM.

As to `CC1(c2ccc(O)cc2)C(=O)Nc2nc(-c3cn4ccnc4c(Cc4ccc(F)cc4)n3)nc(N)c21` (stereo not drawn) [Example 43-B, 4-Amino-2-{8-[(4-fluorophenyl)methyl]imidazo[1,2-a]pyrazin-6-yl}-5-(4-hydroxyphenyl)-5-methyl-5,7-dihydro-6H-pyrrolo[2,3-d]pyrimidin-6-one], in experiment [1], the Ki came to 0.000457 µM. Further, at sGC α1/β1 heterodimer, the Emax is 101% and the EC50 came to 0.142 µM.

For the molecule `CC1(c2ccc(Cl)c(O)c2)C(=O)Nc2nc(-c3cn4ccnc4c(Cc4ccc(Cl)cc4)n3)nc(N)c21` (stereo not drawn) [Example 44-A, 4-Amino-5-(4-chloro-3-hydroxyphenyl)-2-{8-[(4-chlorophenyl)methyl]imidazo[1,2-a]pyrazin-6-yl}-5-methyl-5,7-dihydro-6H-pyrrolo[2,3-d]pyrimidin-6-one], the Ki in experiment [1] amounted to 0.000507 µM. Moreover, at sGC α1/β1 heterodimer, the Emax is 100% and the EC50 amounted to 0.46 µM.

Take `Cc1cc(C2(C)C(=O)Nc3nc(-c4cn5ccnc5c(Cc5cccc(F)c5)n4)nc(N)c32)ccc1O` (stereo not drawn) [Example 45-A, 4-Amino-2-{8-[(3-fluorophenyl)methyl]imidazo[1,2-a]pyrazin-6-yl}-5-(4-hydroxy-3-methylphenyl)-5-methyl-5,7-dihydro-6H-pyrrolo[2,3-d]pyrimidin-6-one]: the Ki in experiment [1] is 0.000565 µM. Moreover, on sGC α1/β1 heterodimer, the Emax was 120% and the EC50 was determined as 1.57 µM.
